#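 Five compound concentrations were applied to cells in 96-well plates for 48 hours; endpoints were derived by simple linear interpolation of the resulting dose-response curve. GI50 = concentration required for 50% inhibition of growth. TGI: total growth inhibition.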 Where a SMILES comes first, the peptide text is derived from it. Bridges are numbered along the chain shown (N, C = ends). [ ]: non-standard residue; d: D form. The star is where a group is joined. ξ: configuration not given here. Cbz = O=C(OCc1ccccc1)*; ξD = NC(CC(=O)O)C(=O)O; Ac3c = NC1(C(=O)O)CC1; Boc = CC(C)(C)OC(=O)*; OtBu = CC(C)(C)O*
# Columns and labels:
# Assay in all cases: growth of human tumour cells (NCI), 48 h
# [1] = system: SNB-19 CNS
# [2] = system: MALME-3M melanoma
# [3] = system: PC-3 prostate
# [4] = system: HS 578T breast
# [5] = system: COLO 205 colon
# [6] = system: U251 CNS
# [7] = system: IGROV1 ovarian
# [8] = system: HL-60(TB) leukemia
# [9] = system: MCF7 breast
# [10] = system: MDA-MB-435
# [11] = system: CAKI-1 renal
Structure (SMILES),TGI [1] [µM],TGI [2] [µM],TGI [3] [µM],TGI [4] [µM],TGI [5] [µM],TGI [6] [µM],TGI [7] [µM],TGI [8] [µM],TGI [9] [µM],TGI [10] [µM],TGI [11] [µM],GI50 [3] [µM],GI50 [1] [µM],GI50 [2] [µM],GI50 [4] [µM],GI50 [6] [µM],GI50 [7] [µM],GI50 [9] [µM],GI50 [10] [µM],GI50 [11] [µM]
CCOC(=O)C(NC(=O)CC)(Nc1ccc(S(=O)(=O)Nc2nc(C)cc(C)n2)cc1)C(F)(F)F (centres undefined),> 100,> 100,> 100,> 100,> 100,> 100,> 100,> 100,> 100,> 100,> 100,,,,,,,,,
Cc1cc(S(=O)(=O)Nc2nc3ccccc3n2-c2ccccc2)c(S)cc1Cl,> 100,> 100,> 100,> 100,> 100,> 100,> 100,> 100,> 100,> 100,> 100,,,,,,,,,
COc1nc(OC)nc(-c2cccc(F)c2)n1,32.4,31.2,40.2,93.5,37.8,31,31.8,> 100,45.1,31,11.4,,,,,,,,,
COC1=CC(=O)c2c(O)c3c(c(O)c2C1=O)C[C@](C)(O)C[C@@H]3O,14.7,2.59,> 42.5,81.4,4.96,14.6,17.2,7.91,16.3,3.34,45.5,,,,,,,,,
COc1cc(OC)c2c(O)c(S(=O)(=O)c3ccc(C)cc3)c(=O)oc2c1,> 100,> 100,> 100,> 100,> 100,> 100,> 100,> 100,> 100,> 100,> 100,,,,,,,,,
CC(C)C(C/C=C1/CC(CO)(COC(=O)C2CCCCC2)OC1=O)C(C)C (centres undefined),29.8,42.3,35.6,43.5,20.9,43.9,34.2,,36.3,> 100,37.8,,,,,,,,,
COC(=O)C1CCCCNC(=O)CCC(NC(=O)OCc2ccccc2)C(=O)N1 (stereo not drawn) (Cbz-Glu-Lys-OMe; lactam 1-2; configuration not given here),> 100,> 100,> 100,> 100,> 100,> 100,> 100,> 100,> 100,> 100,> 100,,,,,,,,,
N=C(N)SCCCN,> 82.7,29.1,54.1,43.5,29.5,24.6,15.6,7.75,> 59.9,14,> 69.9,,,,,,,,,
Cn1c2c(c3ccccc31)CCN1C(=O)C3SC21C1C(=O)N(c2ccccc2)C(=O)C31 (centres undefined),> 100,> 100,> 100,> 100,> 100,> 100,> 100,> 77.3,> 100,> 100,> 100,23.4,,,,,,,,
O=S1(=O)C(c2ccccc2)=C(O)c2ccccc21,> 100,> 100,> 100,> 100,> 100,> 100,> 100,> 100,> 100,> 100,,,,,,,,,,
O=c1[nH]cnc2sc(=S)c3c(c12)CCC3,> 100,98.2,> 100,> 100,62.7,> 100,> 100,57.6,> 100,> 100,49.4,,,,,,,,,
[N-]=[N+]=NC[C@H]1OCO[C@H](CN=[N+]=[N-])[C@H]2OCCOCCOc3ccccc3OCCOCCO[C@@H]21,> 100,> 100,> 100,> 100,> 100,> 100,> 100,> 100,> 100,> 100,> 100,,,,,,,,,
CCOP(=O)(OCC)C1(O)CC(n2cc(C)c(=O)[nH]c2=O)OC1CO (centres undefined),> 100,> 100,> 100,> 100,> 100,> 100,> 100,> 100,> 100,> 100,> 100,,,,,,,,,
COC(=O)C1(NC(=O)C(CC(=O)OC(C)(C)C)NC(=O)OC(C)(C)C)CC1 (centres undefined) (Boc-[ξD](OtBu)-[Ac3c]-OMe),> 100,> 100,> 100,> 100,> 100,> 100,> 100,,> 100,> 100,> 100,,,,,,,,,
O=C1CCC2(O)C3Cc4ccc(Oc5nnnn5-c5ccccc5)c5c4C2(CCN3CC2CC2)C1O5 (centres undefined),> 100,32.7,> 100,> 100,32.9,> 100,> 100,,> 100,37,> 100,,,,,,,,,
O=S(=O)(O)c1cc(O)c2c(O)c(N=Nc3cccc4ccccc34)c(S(=O)(=O)O)cc2c1,> 100,> 100,> 100,> 100,> 100,> 100,> 100,,> 100,> 100,> 100,,,,,,,,,
CSc1ncc2c(n1)-c1ccccc1OC2NC(C)(C)C (centres undefined),> 100,> 100,> 100,> 100,> 100,> 100,,> 100,> 100,> 100,> 100,,,,,,,,,
CCOC(=O)c1c(N2CCOCC2)[nH]c(=O)c(C(c2cccs2)c2c(O)c(C(=O)OCC)c(N3CCOCC3)[nH]c2=O)c1O,> 100,> 100,> 100,> 100,> 100,> 100,,,> 100,> 100,> 100,,,,,,,,,
CCCCc1ccc(-n2sc3ncccc3c2=O)cc1,> 100,14.9,25.5,43.2,33.3,42.7,33.3,6.07,72.2,37.5,,,,,,,,,,
COc1cc(OC)cc(-c2n/c(=C\c3c(O)[nH]c4ccc(Cl)cc34)cc3c2=Nc2ccccc2-3)c1,16.1,44.7,28.7,62.4,,3.22,10.1,,4.66,35.4,30.5,5.55,3.54,21.6,16.4,1.75,3.46,1.82,14,12.9
C=CC(C)(C)c1cc([C@@H]2COc3cc(O)ccc3C2=O)c(O)c(O)c1OC,49,93.6,34.7,> 100,63,40.6,,73.3,32.5,39.2,27.4,,,,,,,,,
O/N=C1/C2CC3CC1(c1ccccc1)CC(/C3=N/O)/C2=N\O (centres undefined),> 100,> 100,> 100,> 100,> 100,> 100,,> 100,> 100,> 100,> 100,,,,,,,,,
C/C=C/[C@H]1O[C@@](O)([C@@H](C)[C@H](O)[C@H](C)[C@H]2OC(=O)/C(OC)=C/C(C)=C/[C@@H](C)[C@@H](O)[C@@H](CC)[C@@H](O)[C@H](C)C/C(C)=C/C=C/[C@@H]2OC)C[C@H](OC2CC(O)C(OC(N)=O)C(C)O2)[C@@H]1C (some centres undefined),23.7,0.73,15.1,48,4.91,17.4,20.9,,16.9,14.8,14.4,,,,,,,,,
COc1ccc2c(-c3ccc(OCCN(C)C)cc3)c(Oc3ccc(Cl)cc3)c(=O)oc2c1,33.6,3.48,19.7,> 54.6,10.5,14.5,14.1,,6.12,8.66,31,,,,,,,,,
COc1ccc2c(c1OC)C(=O)O[C@@H]2[C@H]1c2cc3c(cc2CCN1C)OCO3,> 100,,> 100,> 100,> 100,> 100,> 100,> 100,> 100,> 100,> 100,,,,,,,,,
COc1cc([C@H]2Oc3c(OC)cc(CCCO)cc3[C@@H]2CO)ccc1O,> 100,> 100,> 100,> 100,> 100,> 100,> 100,> 100,> 100,> 100,,,,,,,,,,
Cc1ccc(S(=O)(=O)c2ccc([N+](=O)[O-])o2)cc1,40.4,2.64,3.28,13.4,2.27,17.7,3.37,,7.13,3.69,1.54,,,,,,,,,
CN(C)Cc1cc(C(=O)/C=C/c2cccc(Cl)c2)cc(CN(C)C)c1O,69.9,,22.8,32.7,3.79,12.3,14.9,4.58,23.3,12.6,4.3,,,,,,,,,
